Experimental data reported in US6608082B1, “Treatment of erectile dysfunction using isoquinoline compound melanocortin receptor ligands” (Lion Bioscience AG, priority 1998, dated 2003).
Where two headings read alike, the source gives them in different places.

Columns and labels:
[1] = biological target: T1, MCR-1 (Homo sapiens, UniProt Q01726); experiment: Melanocortin receptor binding assay, competition with 125I-HP 467, HEK 293 cells expressing hMCR-1; conditions: for IC50 / MC-1 IC50: inhibition of binding of 125I-HP 467, HEK 293 cells expressing MCR-1; for IC50: read-out: MC-1 IC50; for % Disp. MC-1 10 μM: displacement of 125I-HP 467 at 10 μM isoquinoline compound
T1 construct: expressed in transfected cells; host or cells: HEK 293
Method in brief: (§1)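 Test compounds compete on intact HEK 293 cells carrying hMCR-1 (2×10^4 per tube) or hMCR-4 (4×10^3 per tube), suspended in PBS, 10% calf serum, 1 mM CaCl2.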

[2] = biological target: T2, MCR-4 (Homo sapiens, UniProt P32245); experiment: Melanocortin receptor binding assay, competition with 125I-HP 467, HEK 293 cells expressing hMCR-4; conditions: inhibition of binding of 125I-HP 467, HEK 293 cells expressing MCR-4; for IC50: read-out: MC-4 IC50
T2 construct: expressed in transfected cells; host or cells: HEK 293
Method in brief: as §1

T1 sequence (Q01726 whole entry): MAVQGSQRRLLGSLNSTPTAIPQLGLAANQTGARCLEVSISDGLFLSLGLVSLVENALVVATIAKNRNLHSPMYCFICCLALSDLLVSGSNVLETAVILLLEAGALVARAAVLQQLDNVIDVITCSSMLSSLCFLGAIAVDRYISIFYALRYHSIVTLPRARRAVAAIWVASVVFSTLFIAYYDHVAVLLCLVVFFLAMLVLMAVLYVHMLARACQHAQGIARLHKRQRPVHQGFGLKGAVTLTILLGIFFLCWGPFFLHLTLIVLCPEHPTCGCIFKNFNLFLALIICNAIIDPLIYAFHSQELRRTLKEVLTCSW
T2 sequence (P32245 whole entry): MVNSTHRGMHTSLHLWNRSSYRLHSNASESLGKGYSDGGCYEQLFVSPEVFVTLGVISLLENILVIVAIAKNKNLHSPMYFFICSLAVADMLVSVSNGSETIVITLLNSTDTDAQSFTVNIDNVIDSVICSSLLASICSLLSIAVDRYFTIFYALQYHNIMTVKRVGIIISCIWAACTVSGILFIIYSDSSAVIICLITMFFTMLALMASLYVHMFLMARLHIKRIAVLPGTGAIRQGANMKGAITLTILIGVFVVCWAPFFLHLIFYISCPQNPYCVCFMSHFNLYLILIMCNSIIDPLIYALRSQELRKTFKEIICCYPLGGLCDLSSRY

| Compound | IC50 ([1]; TRG 2414 library) | IC50 ([2]; TRG 2414 library) | MC-1 IC50 ([1]; TRG 2414 library) | MC-4 IC50 ([2]; TRG 2414 library) | IC50 ([1]; TRG 2405 section) | % Disp. MC-1 10 μM ([1]; first of duplicate) | % Disp. MC-1 10 μM ([1]; second of duplicate) | IC50 ([2]; TRG 2405 section) |
| --- | --- | --- | --- | --- | --- | --- | --- | --- |
| NCC(N)CCCCN1Cc2ccccc2C(CNC2CCCCC2)C1c1ccccc1Br (stereo not drawn) [Cmpd 237] | 5.87 µM | 3.61 µM | – | – | – | – | – | – |
| NCC(CCCCN1Cc2ccccc2C(CNC2CCCCC2)C1c1ccccc1Br)NCCc1ccccc1 (stereo not drawn) [Cmpd 238] | 2.78 µM | 5.22 µM | – | – | – | – | – | – |
| NCC(CCCCN1Cc2ccccc2C(CNC2CCCCC2)C1c1ccccc1Br)NCc1ccccc1 (stereo not drawn) [Cmpd 239] | 3.3 µM | 6.27 µM | – | – | – | – | – | – |
| CC(C)Cc1ccc(C(C)CNC(CN)CCCCN2Cc3ccccc3C(CNC3CCCCC3)C2c2ccccc2Br)cc1 (stereo not drawn) [Cmpd 240] | 8.98 µM | 9.9 µM | – | – | – | – | – | – |
| COc1ccccc1CCNCC1c2ccccc2CN(CCCCC(N)CN)C1c1ccc(Cl)cc1Cl (stereo not drawn) [Cmpd 241] | – | – | no fit | no fit | – | – | – | – |
| NCC(N)CCCCN1Cc2ccccc2C(CNCCc2cccc(Cl)c2)C1c1ccc(Cl)cc1Cl (stereo not drawn) [Cmpd 244] | 44.1 µM | – | – | no fit | – | – | – | – |
| COc1ccc(CNCC2c3ccccc3CN(CCCCC(N)CN)C2c2ccc(Cl)cc2Cl)cc1 (stereo not drawn) [Cmpd 247] | – | – | no fit | no fit | – | – | – | – |
| COc1ccc(CCNCC2c3ccccc3CN(CCCCC(N)CN)C2c2cc(C(F)(F)F)cc(C(F)(F)F)c2)cc1 (stereo not drawn) [Cmpd 262] | – | – | no fit | no fit | – | – | – | – |
| COc1ccccc1CCNCC1c2ccccc2CN(CCCCC(N)CN)C1c1ccc(Oc2ccccc2)cc1 (stereo not drawn) [Cmpd 265] | – | – | no fit | no fit | – | – | – | – |
| NCC(N)CCCCN1Cc2ccccc2C(CNCCc2cccc(Cl)c2)C1c1ccc(Oc2ccccc2)cc1 (stereo not drawn) [Cmpd 268] | – | – | no fit | no fit | – | – | – | – |
| COc1ccc(CNCC2c3ccccc3CN(CCCCC(N)CN)C2c2ccc(Oc3ccccc3)cc2)cc1 (stereo not drawn) [Cmpd 271] | – | – | no fit | no fit | – | – | – | – |
| COc1ccc(CCNCC2c3ccccc3CN(CCCCC(N)CN)C2c2ccc(Oc3ccccc3)cc2)cc1 (stereo not drawn) [Cmpd 274] | – | – | no fit | no fit | – | – | – | – |
| CCCOc1ccc(C2C(CNCCc3ccccc3OC)c3ccccc3CN2CCCCC(N)CN)cc1 (stereo not drawn) [Cmpd 277] | – | – | no fit | no fit | – | – | – | – |
| CCCOc1ccc(C2C(CNCCc3cccc(Cl)c3)c3ccccc3CN2CCCCC(N)CN)cc1 (stereo not drawn) [Cmpd 280] | – | – | no fit | no fit | – | – | – | – |

The next lines start with the values.

| IC50 ([1]; TRG 2414 library) | IC50 ([2]; TRG 2414 library) | MC-1 IC50 ([1]; TRG 2414 library) | MC-4 IC50 ([2]; TRG 2414 library) | IC50 ([1]; TRG 2405 section) | % Disp. MC-1 10 μM ([1]; first of duplicate) | % Disp. MC-1 10 μM ([1]; second of duplicate) | IC50 ([2]; TRG 2405 section) | Compound |
| --- | --- | --- | --- | --- | --- | --- | --- | --- |
| – | – | no fit | no fit | – | – | – | – | CCCOc1ccc(C2C(CNCc3ccc(OC)cc3)c3ccccc3CN2CCCCC(N)CN)cc1 (stereo not drawn) [Cmpd 283] |
| – | – | – | – | 2.17 µM | 76.8% | 77.7% | 11.6 µM | Cn1cccc1C1C(CNC2CCCCC2)c2ccccc2CN1CCN (stereo not drawn) [TRG 2405-4] |
| – | – | – | – | 8.75 µM | 52% | 52.5% | 9.24 µM | NCCN1Cc2ccccc2C(CNC2CCCCC2)C1c1cc(C(F)(F)F)cc(C(F)(F)F)c1 (stereo not drawn) [TRG 2405-28] |
| – | – | – | – | 14.3 µM | 42.3% | 45.8% | 18.9 µM | Cc1cccc(C2C(CNC3CCCCC3)c3ccccc3CN2CCN)c1 (stereo not drawn) [TRG 2405-47] |
| – | – | – | – | 8.66 µM | 30.8% | 52.9% | 20.8 µM | NCCN1Cc2ccccc2C(CNC2CCCCC2)C1c1ccc([N+](=O)[O-])o1 (stereo not drawn) [TRG 2405-80] |
| – | – | – | – | 5.98 µM | 57.1% | 59.8% | 33.5 µM | NCCN1Cc2ccccc2C(CNC2CCCCC2)C1c1ccc[nH]1 (stereo not drawn) [TRG 2405-85] |
| – | – | – | – | 12.2 µM | 54.2% | 59.6% | 11.2 µM | CNC(CN)CN1Cc2ccccc2C(CNC2CCCCC2)C1c1ccc(Cl)cc1Cl (stereo not drawn) [TRG 2405-100] |
| – | – | – | – | 7.48 µM | 57.2% | 51% | 17.1 µM | CNC(CN)CN1Cc2ccccc2C(CNC2CCCCC2)C1c1ccccn1 (stereo not drawn) [TRG 2405-111] |
| – | – | – | – | 5.16 µM | 65.2% | 63% | 3.1 µM | CNC(CN)CN1Cc2ccccc2C(CNC2CCCCC2)C1c1cccc(Oc2ccc(OC)cc2)c1 (stereo not drawn) [TRG 2405-124] |
| – | – | – | – | 5.34 µM | 52.4% | 58.4% | 12.8 µM | CNC(CN)CN1Cc2ccccc2C(CNC2CCCCC2)C1c1ccc(F)c(Br)c1 (stereo not drawn) [TRG 2405-126] |
| – | – | – | – | 20 µM | 37.7% | 44.1% | 12.4 µM | CNC(CN)CN1Cc2ccccc2C(CNC2CCCCC2)C1c1cccc(O)c1 (stereo not drawn) [TRG 2405-133] |
| – | – | – | – | 10.3 µM | 63.7% | 57.4% | 8.95 µM | CNC(CN)CN1Cc2ccccc2C(CNC2CCCCC2)C1c1ccc(C(F)(F)F)cc1 (stereo not drawn) [TRG 2405-148] |
| – | – | – | – | 4.81 µM | 68.4% | 57.5% | 10.2 µM | CNC(CN)CN1Cc2ccccc2C(CNC2CCCCC2)C1c1ccc([N+](=O)[O-])o1 (stereo not drawn) [TRG 2405-170] |
